Measurements as given in PMC10870435, “A novel complement C3 inhibitor CP40-KK protects against experimental pulmonary arterial hypertension via an inflammasome NLRP3 associated pathway” (Journal of Translational Medicine, 2024).

Legend:
RAW264.7 cells = assay: RAW264.7 macrophages, western blot of NLRP3 pathway after C3a; assay type: cell-based; conditions: n = 3 per group
Protocol: (§1) RAW264.7 cells were provided by the Hubei Key Laboratory of Genetics and Molecular Mechanism of Cardiologic Disorders, Huazhong University of Science and Technology (China), and cultured in DMEM containing 10% fetal bovine serum at 37 ℃ and 5% CO2. RAW264.7 cells were incubated with 50 nM C3a for 12 h and then were washed twice with PBS. The cells were incubated with serum-free DMEM for 12 h and the supernatants were collected. After pretreatment with 100 ng/ml of IL-1RA for 1 h, we added the supernatants from the control or C3a group to PASMCs respectively for 24 h.
Proteins were collected from the fresh frozen-rat lung tissues using RIPA lysis buffer. Protein concentration was quantified using a BCA reagent. Equal amounts of protein were electrophoretically separated on 10% SDS polyacrylamide gel, transferred to PVDF membranes, and probed with desired primary antibodies overnight at 4 °C. Membranes were then washed with TBST and incubated with anti-mouse IgG (1:5000) or anti-rabbit IgG (1:5000) horseradish peroxidase conjugated antibodies as indicated. Blots were developed with the enhanced chemiluminescence system. To compare and quantify levels of proteins, the density of each band was measured using Image J software. Equal loading for total cell or tissue lysates was determined by β-Actin western blot.

[1] = system: primary rat pulmonary arterial smooth muscle cells (PASMCs); assay: PASMC proliferation with macrophage supernatant (EdU assay, western blot); assay type: cell-based; conditions: 24 h, n = 3 per group
Protocol: PASMCs were isolated from rat distal pulmonary arteries and then cultured in Dulbecco’s modified Eagle’s medium (DMEM) containing 20% fetal bovine serum as previously described.
Cells seeded in the 24-well plate were labeled with 10 μmol/L of EdU (Meilun, Dalian, China) for 2 h at 37 ℃. Subsequently, cells were fixed in 4% of paraformaldehyde for 20 min and incubated in phosphate-buffered saline (PBS) containing 0.5% of Triton- X100 for 15 min. After being washed three times with PBS, 150 μL of dying solution was applied per well for 30 min and nuclei staining with Hoechst 33,342 for 10 min away from light. The proliferating cells were labeled with green fluorescence, with a maximum excitation wavelength of 491 nm and a maximum emission wavelength of 518 nm for 488-Azide. The proliferative rate = EdU-positive cells/Hoechst-positive cells.
as §1, with “After pretreatment with 100 ng/ml of IL-1RA for 1 h, we added the supernatants from the control or C3a group to PASMCs respectively for 24 h.” left out

C3 = conditions: cited from earlier work
Description: The selective C3 inhibitor CP40 has been found therapeutically effective in various diseases, but has yet not been tested in the PAH model. In the current study, we applied the newly identified CP40 analog, CP40-KK, with two more lysine attached to the C terminus, in the MCT-induced PAH rat model.

[2] = system: MCT-induced rat PAH model; assay: MCT-induced rat PAH model: hemodynamics, RV hypertrophy, vessel morphology; assay type: in vivo; conditions: single i.p. injection 40 mg/kg; control group 28.00 ± 3.55 mmHg; mean ± SEM; n = 6 per group; SEM
Protocol: In the current study, two animal experiments were conducted successively. 30 rats were randomly divided into two groups (control group and MCT group, n = 15 per group) in the first experiment. MCT group rats received a single intraperitoneally injection of MCT (40 mg/kg) on day 1 to induce PAH while control group rats received an equivoluminal saline injection intraperitoneally. For the second animal experiment, the rats were assigned into four groups (control group, MCT group, CP40-KK group, and MCT + CP40-KK group, n = 15 per group). The control group was given the same volume of saline subcutaneously while the CP40-KK group rats only received CP40-KK (2 mg/kg) by subcutaneous injection from day 15 to day 28 continuously. The rats in the MCT group and MCT + CP40-KK group were received a single intraperitoneally injection of MCT (40 mg/kg) on day 1 and subcutaneously injected with either an equal volume of saline or CP40-KK (2 mg/kg) at day 15 to day 28 continuously. The dose selection of MCT and CP40-KK in our study was established based on previous studies.
Four weeks after the MCT injection, the experimental rats were weighed and anesthetized by intraperitoneal injecting pentobarbital sodium (40 mg/kg). After being anesthetized, rats were fixed in the supine position. A 3F polyethylene catheter filling with heparin was introduced into the right ventricle (RV) through the right jugular vein and the right atrium. Right ventricle systolic pressure (RVSP) was assessed by a pressure transducer and PowerLab system (AD Instruments, Australia). Pressure recordings were measured over a 2 min period and analyzed with Powerlab Pro Software (AD Instruments, Australia). After the hemodynamic study, the rats were euthanized by an overdose of anesthesia, and their lungs and hearts were dissected for further evaluation. The dry weights of the RV and left ventricle (LV) + septum were measured to calculate the RV/(LV + S) ratio and the RV / body weight (RV/BW). The left lung was fixed in 4% paraformaldehyde, and the right lung was snap-frozen in liquid nitrogen and stored at − 80 °C for further analysis.
Fixed lung samples were further fixed in 4% buffered paraformaldehyde for 24 h, embedded in paraffin, and processed for sectioning at 5 μm thick. Hematoxylin and eosin (H&E) staining were performed on paraffin-fixed lung tissue slides. The percent medial wall thickness (WT%) and percent medial wall area (WA%) were used to assess the extent of pulmonary vascular remodeling. WT% = (external diameter − internal diameter)/(external diameter) × 100%; WA% = (external area − internal area)/external area × 100%. All data were obtained and analyzed in a blinded manner.

With “C3a: complement anaphylatoxin C3a protein used at 50 nM to stimulate macrophages” as the compound, how does the “cleaved-IL1β production by macrophages” value (RAW264.7 cells; RAW264.7, C3a 50 nM) read?
The value was “stimulated macrophages to produce cleaved-IL1β”.

Which “cellular levels of NLRP3, cleaved-caspase-1, cleaved-IL1β and IL18” value (RAW264.7 cells; RAW264.7 treated with C3a (50 nM), 1 mM C3aRa) does the source give for NC(N)=NCCC[C@H](NC(=O)COCC(c1ccccc1)c1ccccc1)C(=O)O.O=C(O)C(F)(F)F [C3aRa, SB290157 trifluoroacetate, reference compound] here?
Its value is “reduced”.

What does the source list for “IL-1RA: IL-1RA protein reagent (MedChemExpress HY-P72566), 100 ng/ml pretreatment of PASMCs”?
PCNA and Cyclin D1 expression in PASMCs ([1]; C3a-supernatant + IL-1RA vs C3a-supernatant + PBS, western blot): decreased; number of EdU-positive PASMCs increased by macrophage-conditioned media ([1]; C3a-supernatant, 100 ng/ml IL-1RA pretreatment 1 h): reversed

For CC[C@H](C)[C@H](N)C(=O)N[C@H]1CSSC[C@@H](C(=O)N[C@H](C(N)=O)[C@@H](C)O)NC(=O)[C@H](CCCNC(=N)N)NC(=O)[C@H](Cc2c[nH]cn2)NC(=O)[C@H](Cc2c[nH]cn2)NC(=O)CNC(=O)[C@H](Cc2c[nH]c3ccccc23)NC(=O)[C@H](CC(=O)O)NC(=O)[C@H](CCC(N)=O)NC(=O)[C@H](C(C)C)NC(=O)[C@H](C(C)C)NC1=O [compstatin], which “species specificity of C3 binding” value (C3) is on record?
The value was “can bind only primates but not rodent C3”.

For C[C@H]1C(=O)O[C@@H]2CCN3CC=C(COC(=O)[C@](C)(O)[C@]1(C)O)[C@H]23 [MCT, Monocrotaline, reference compound], which “RVSP after 4 weeks of MCT treatment” value [2] is on record?
The value was 63.03 ± 4.19 mmHg.
